Reference: BindingDB's records for doi:10.1016/s0960-894x(01)00654-0 (Merck Research Laboratories, 2001)

Columns and labels:
[1] = target: T1, C-C chemokine receptor type 5 (Homo sapiens, UniProt P51681); assay: ChEBML_39507
From the text: (§1) Binding affinity against C-C chemokine receptor type 5 stably expressed in Chinese hamster ovary (CHO) cells using [125I]-MIP-1 alpha as the radioligand

[2] = target: T1, C-C chemokine receptor type 5; assay: as §1

T1 sequence (P51681 whole entry): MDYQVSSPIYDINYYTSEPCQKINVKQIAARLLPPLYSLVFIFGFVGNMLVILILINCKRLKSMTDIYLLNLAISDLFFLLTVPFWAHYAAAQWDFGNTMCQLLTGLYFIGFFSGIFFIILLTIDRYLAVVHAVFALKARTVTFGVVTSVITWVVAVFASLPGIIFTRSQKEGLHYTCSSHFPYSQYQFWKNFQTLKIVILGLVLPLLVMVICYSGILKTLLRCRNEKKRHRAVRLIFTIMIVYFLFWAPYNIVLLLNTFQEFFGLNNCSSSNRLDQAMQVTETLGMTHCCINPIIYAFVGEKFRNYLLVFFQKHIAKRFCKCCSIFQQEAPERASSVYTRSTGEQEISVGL

IC50 [1]: 25 nM | IC50 [2]: 25 nM
Compound: O=c1[nH]c(Cc2c[nH]c3ccccc23)c(O)n1CC(CCN1CCC(c2ccccc2)CC1)c1cccc(Cl)c1 [(R)-3-[2-(3-Chloro-phenyl)-4-(4-phenyl-piperidin-1-yl)-butyl]-5-(1H-indol-3-ylmethyl)-imidazolidine-2,4-dione]
